# Where two headings read alike, the source gives them in different places.
# Columns and labels:
# [1] = from the literature; cited from earlier work
# E. coli 0705A0434 = assay: Minimal inhibitory concentration on Muller-Hinton agar; type: cell-based; conditions: for Minimal Inhibitory Concentration: E. coli 0705A0434; for MIC: Escherichia coli
# Method: (§1) The essential oils were also tested individually for their minimal inhibitory concentration.
# (§2) The solution was first prepared at 40% in DMSO before being placed on the Muller-Hinton agar in the following manner in Table VIII:
# (§3) Twenty-two different microorganisms were tested and their minimal inhibitory concentration was tested.
# E. aerogenes 0705A0867 = assay: as above; type: cell-based; conditions: for Minimal Inhibitory Concentration: E. aerogenes 0705A0867; for MIC: Klebsiella aerogenes
# Method: as §1, §2, §3
# A. baumanni 12 = assay: as above; type: cell-based; conditions: for MIC: read-out: Minimal Inhibitory Concentration
# Method: as §1, §2, §3
# E. cloacae 0705A1743 = assay: as above; type: cell-based; conditions: for Minimal Inhibitory Concentration: E. cloacae 0705A1743; for MIC: Enterobacter cloacae
# Method: as §1, §2, §3
# P. aeroginosa ATCC27853 = assay: as above; type: cell-based; conditions: read-out: Minimal Inhibitory Concentration
# Method: as §1, §2, §3
# S. aureus 0701A0095 = assay: as above; type: cell-based; conditions: for MIC: Staphylococcus aureus
# Method: as §1, §2, §3
# S. aureus 0706C0025 = assay: as above; type: cell-based; conditions: for MIC: Staphylococcus aureus
# Method: as §1, §2, §3
# P. aeroginosa 0704C0134 = assay: as above; type: cell-based
# Method: as §1, §2, §3
# Salmonell enteritidis 4 = assay: as above; type: cell-based
# Method: as §1, §2, §3
# S. aureus 0703H0036 = assay: as above; type: cell-based; conditions: for Minimal Inhibitory Concentration: S. aureus 0703H0036; for MIC: Staphylococcus aureus
# Method: as §1, §2, §3
# A. baumanni CIP7034 = assay: as above; type: cell-based
# Method: as §1, §2, §3
# A. baumanni SAN008 = assay: as above; type: cell-based
# Method: as §1, §2, §3
# S. aureus 0702E0196 = assay: as above; type: cell-based; conditions: for Minimal Inhibitory Concentration: S. aureus 0702E0196; for MIC: Staphylococcus aureus
# Method: as §1, §2, §3
# A. baumanni AYE = assay: as above; type: cell-based
# Method: as §1, §2, §3
# A. baumanni CIP107292 = assay: as above; type: cell-based
# Method: as §1, §2, §3
# A. baumanni CIP5377 = assay: as above; type: cell-based; conditions: for MIC: read-out: Minimal Inhibitory Concentration
# Method: as §1, §2, §3
# S. aureus ATC25923 = assay: as above; type: cell-based; conditions: for Minimal Inhibitory Concentration: S. aureus ATC25923; for MIC: Staphylococcus aureus
# Method: as §1, §2, §3
# E. coli ATCC25922 = assay: as above; type: cell-based; conditions: for Minimal Inhibitory Concentration: E. coli ATCC25922; for MIC: Escherichia coli
# Method: as §1, §2, §3
# A. baumanni RCH = assay: as above; type: cell-based; conditions: for MIC: read-out: Minimal Inhibitory Concentration
# Method: as §1, §2, §3
# K. oxyloca 0705C0187 = assay: as above; type: cell-based
# Method: as §1, §2, §3
# P. aeroginosa 0703C0259 = assay: as above; type: cell-based
# Method: as §1, §2, §3
# S. aureus ATCC25923 = assay: Minimal inhibitory concentration on Mueller Hinton Agar (Example 13); type: cell-based, Staphylococcus aureus; conditions: Staphlococcus aureus
# Method: (§4) Mueller Hinton Agar was used in a standardized disk diffusion procedure for determining the susceptibility of rapidly growing aerobic microorganisms to antimicrobial agents.
# (§5) The test to evaluate the increase in resistance was carried out with a concentration of the product of two times the Minimal Inhibitory Concentration (MIC).
# SARM S. aureus ATCC25923 [2] = assay: as above; type: cell-based, Staphylococcus aureus; conditions: Staphylococcus aureus
# Method: as §4, §5
# SARM S. aureus ATCC25923 [3] = assay: In vitro emergence of resistance over passages; type: cell-based, Staphylococcus aureus
# Method: as §4, §5
smiles,measurement,setting,value
[H]/N=C(/N)N[C@H]1[C@H](O)[C@@H](O)[C@H](O[C@@H]2O[C@@H](C)[C@](O)(C=O)[C@H]2O[C@@H]2O[C@@H](CO)[C@H](O)[C@@H](O)[C@@H]2NC)[C@@H](N/C(N)=N\[H])[C@@H]1O [Streptomycin],LD50 in mice by intraperitoneal injection,[1],525 mg/kg
Cc1ccc(C(C)C)cc1O [carvacrol],Minimal Inhibitory Concentration,E. coli 0705A0434,2 mg/mL
same,MIC,"E. coli 0705A0434; 0705A0434, read-out: Minimal Inhibitory Concentration, E. coli 0705A0434",1500 µg/mL
same,Minimal Inhibitory Concentration,E. aerogenes 0705A0867,2 mg/mL
same,MIC,"E. aerogenes 0705A0867; 0705A0867, read-out: Minimal Inhibitory Concentration, E. aerogenes 0705A0867",1500 µg/mL
same,MIC,A. baumanni 12,1500 µg/mL
same,Minimal Inhibitory Concentration,E. cloacae 0705A1743,2 mg/mL
same,MIC,"E. cloacae 0705A1743; 0705A1743, read-out: Minimal Inhibitory Concentration, E. cloacae 0705A1743",1500 µg/mL
same,MIC,P. aeroginosa ATCC27853,7500 µg/mL
same,MIC,"S. aureus 0701A0095; 0701A0095, read-out: Minimal Inhibitory Concentration",1500 µg/mL
same,Minimal Inhibitory Concentration,S. aureus 0706C0025; S. aureus 0706C0025,2 mg/mL
same,MIC,"S. aureus 0706C0025; 0706C0025, read-out: Minimal Inhibitory Concentration, S. aureus 0706C0025",1500 µg/mL
same,Minimal Inhibitory Concentration,P. aeroginosa 0704C0134; P. aeroginosa 0704C0134,5 mg/mL
same,MIC,"P. aeroginosa 0704C0134; read-out: Minimal Inhibitory Concentration, P. aeroginosa 0704C0134",2500 µg/mL
same,Minimal Inhibitory Concentration,Salmonell enteritidis 4; Salmonell enteritidis 4,2.5 mg/mL
same,MIC,"Salmonell enteritidis 4; read-out: Minimal Inhibitory Concentration, Salmonell enteritidis 4",2000 µg/mL
same,Minimal Inhibitory Concentration,S. aureus 0703H0036,2 mg/mL
same,MIC,"S. aureus 0703H0036; 0703H0036, read-out: Minimal Inhibitory Concentration, S. aureus 0703H0036",1500 µg/mL
same,Minimal Inhibitory Concentration,A. baumanni CIP7034; A. baumanni CIP7034,1.5 mg/mL
same,MIC,"A. baumanni CIP7034; read-out: Minimal Inhibitory Concentration, A. baumanni CIP7034",1000 µg/mL
same,Minimal Inhibitory Concentration,A. baumanni SAN008; A. baumanni SAN008,1.5 mg/mL
same,MIC,"A. baumanni SAN008; read-out: Minimal Inhibitory Concentration, A. baumanni SAN008",1000 µg/mL
same,Minimal Inhibitory Concentration,S. aureus 0702E0196,1 mg/mL
same,MIC,"S. aureus 0702E0196; 0702E0196, read-out: Minimal Inhibitory Concentration, S. aureus 0702E0196",1500 µg/mL
same,Minimal Inhibitory Concentration,A. baumanni AYE; A. baumanni AYE,1.5 mg/mL
same,MIC,"A. baumanni AYE; read-out: Minimal Inhibitory Concentration, A. baumanni AYE",1000 µg/mL
same,Minimal Inhibitory Concentration,A. baumanni CIP107292; A. baumanni CIP107292,1.5 mg/mL
same,MIC,"A. baumanni CIP107292; read-out: Minimal Inhibitory Concentration, A. baumanni CIP107292",1000 µg/mL
same,MIC,A. baumanni CIP5377,1000 µg/mL
same,Minimal Inhibitory Concentration,S. aureus ATC25923,0.75 mg/mL
same,MIC,"S. aureus ATC25923; ATC25923, read-out: Minimal Inhibitory Concentration, S. aureus ATC25923",1500 µg/mL
same,Minimal Inhibitory Concentration,E. coli ATCC25922,2 mg/mL
same,MIC,"E. coli ATCC25922; ATCC25922, read-out: Minimal Inhibitory Concentration, E. coli ATCC25922",1500 µg/mL
same,MIC,A. baumanni RCH,1000 µg/mL
same,Minimal Inhibitory Concentration,K. oxyloca 0705C0187; K. oxyloca 0705C0187,2 mg/mL
same,MIC,"K. oxyloca 0705C0187; read-out: Minimal Inhibitory Concentration, K. oxyloca 0705C0187",1500 µg/mL
C=CCc1ccc(O)c(OC)c1 [eugenol],Minimal Inhibitory Concentration,E. coli 0705A0434,1.5 mg/mL
same,MIC,"E. coli 0705A0434; 0705A0434, E. coli 0705A0434, read-out: Minimal Inhibitory Concentration",1000 µg/mL
same,Minimal Inhibitory Concentration,E. aerogenes 0705A0867,1.5 mg/mL
same,MIC,"E. aerogenes 0705A0867; 0705A0867, E. aerogenes 0705A0867, read-out: Minimal Inhibitory Concentration",1000 µg/mL
same,Minimal Inhibitory Concentration,A. baumanni 12; A. baumanni 12,1.5 mg/mL
same,MIC,A. baumanni 12; A. baumanni 12,1000 µg/mL
same,Minimal Inhibitory Concentration,E. cloacae 0705A1743,1.5 mg/mL
same,MIC,"E. cloacae 0705A1743; 0705A1743, E. cloacae 0705A1743, read-out: Minimal Inhibitory Concentration",1000 µg/mL
same,MIC,P. aeroginosa ATCC27853; P. aeroginosa ATCC27853,7500 µg/mL
same,Minimal Inhibitory Concentration,S. aureus 0701A0095; S. aureus 0701A0095,1.5 mg/mL
same,MIC,"S. aureus 0701A0095; 0701A0095, S. aureus 0701A0095, read-out: Minimal Inhibitory Concentration",750 µg/mL
same,MIC,"S. aureus 0706C0025; 0706C0025, S. aureus 0706C0025, read-out: Minimal Inhibitory Concentration",1000 µg/mL
same,Minimal Inhibitory Concentration,P. aeroginosa 0704C0134; P. aeroginosa 0704C0134,2 mg/mL
same,MIC,"P. aeroginosa 0704C0134; P. aeroginosa 0704C0134, read-out: Minimal Inhibitory Concentration",1500 µg/mL
same,MIC,P. aeroginosa 0703C0259,2500 µg/mL
same,Minimal Inhibitory Concentration,P. aeroginosa 0703C0259,5 mg/mL
same,Minimal Inhibitory Concentration,Salmonell enteritidis 4; Salmonell enteritidis 4,1.5 mg/mL
same,MIC,"Salmonell enteritidis 4; Salmonell enteritidis 4, read-out: Minimal Inhibitory Concentration",1000 µg/mL
same,Minimal Inhibitory Concentration,S. aureus 0703H0036,1.5 mg/mL
same,MIC,"S. aureus 0703H0036; 0703H0036, S. aureus 0703H0036, read-out: Minimal Inhibitory Concentration",1000 µg/mL
same,Minimal Inhibitory Concentration,A. baumanni CIP7034; A. baumanni CIP7034,1.5 mg/mL
same,MIC,"A. baumanni CIP7034; A. baumanni CIP7034, read-out: Minimal Inhibitory Concentration",1000 µg/mL
same,Minimal Inhibitory Concentration,A. baumanni SAN008; A. baumanni SAN008,1.5 mg/mL
same,MIC,"A. baumanni SAN008; A. baumanni SAN008, read-out: Minimal Inhibitory Concentration",750 µg/mL
same,Minimal Inhibitory Concentration,S. aureus 0702E0196,1.5 mg/mL
same,MIC,"S. aureus 0702E0196; 0702E0196, S. aureus 0702E0196, read-out: Minimal Inhibitory Concentration",1000 µg/mL
same,Minimal Inhibitory Concentration,A. baumanni AYE; A. baumanni AYE,1 mg/mL
same,MIC,"A. baumanni AYE; A. baumanni AYE, read-out: Minimal Inhibitory Concentration",750 µg/mL
same,MIC,"A. baumanni CIP107292; A. baumanni CIP107292, read-out: Minimal Inhibitory Concentration",1000 µg/mL
same,Minimal Inhibitory Concentration,A. baumanni CIP5377; A. baumanni CIP5377,1 mg/mL
same,MIC,A. baumanni CIP5377; A. baumanni CIP5377,500 µg/mL
same,Minimal Inhibitory Concentration,S. aureus ATC25923,1.5 mg/mL
same,MIC,"S. aureus ATC25923; ATC25923, S. aureus ATC25923, read-out: Minimal Inhibitory Concentration",750 µg/mL
same,Minimal Inhibitory Concentration,E. coli ATCC25922,1.5 mg/mL
same,MIC,"E. coli ATCC25922; ATCC25922, E. coli ATCC25922, read-out: Minimal Inhibitory Concentration",750 µg/mL
same,Minimal Inhibitory Concentration,A. baumanni RCH; A. baumanni RCH,1 mg/mL
same,MIC,A. baumanni RCH; A. baumanni RCH,750 µg/mL
same,Minimal Inhibitory Concentration,K. oxyloca 0705C0187; K. oxyloca 0705C0187,1.5 mg/mL
same,MIC,"K. oxyloca 0705C0187; K. oxyloca 0705C0187, read-out: Minimal Inhibitory Concentration",1000 µg/mL
CO[C@@H]1[C@@H](O[C@@H]2O[C@H](C)[C@@H](O[C@H]3C[C@@](C)(O)[C@@H](OC(=O)CC(C)C)[C@H](C)O3)[C@H](N(C)C)[C@H]2O)[C@@H](CC=O)C[C@@H](C)[C@@H](O)/C=C/C=C/C[C@@H](C)OC(=O)C[C@H]1OC(C)=O [Josamycin],LD50 in mice by intraperitoneal injection,[1],780 mg/kg
CO[C@H]1/C=C/O[C@@]2(C)Oc3c(C)c(O)c4c(O)c(c(/C=N/N5CCN(C)CC5)c(O)c4c3C2=O)NC(=O)/C(C)=C\C=C\[C@H](C)[C@H](O)[C@@H](C)[C@@H](O)[C@@H](C)[C@H](OC(C)=O)[C@@H]1C [Rifampicin],2 times the minimal inhibitory concentration,S. aureus ATCC25923,0.16 µg/mL
same,MIC,"SARM S. aureus ATCC25923 [2]; ATCC25923, read-out: Minimal inhibitory concentration",0.008 µg/mL
same,MIC,"SARM S. aureus ATCC25923 [2]; ATCC25923, read-out: Minimal inhibitory concentration/4",0.002 µg/mL
same,"appearance of resistance, passage",SARM S. aureus ATCC25923 [3]; Staphylococcus aureus,6
same,concentration at which inhibitory activity reappeared,SARM S. aureus ATCC25923 [3]; after appearance of resistance,0.38 ml/I
same,times the initial minimal inhibitory concentration,SARM S. aureus ATCC25923 [3]; after appearance of resistance,47.5

# From US9492398B2, “Nanocapsulation of essential oils for preventing or curing infectious diseases alone or with an antibiotic” (Eydo Pharma, priority 2011, dated 2016)
